Structures can show the parent of a compound that is named as a salt. Where two headings read alike, the source gives them in different places.
Tests used:
[1] = target: T1, DAT (Rattus norvegicus, UniProt P23977); experiment: Dopamine transporter binding assay, displacement of [3H]WIN 35,428; conditions: for Ki: rat caudate-putamen membranes, read-out: DAT [3H]WIN 35,428 Ki ± SEM; for Reduction of binding affinity at the DAT compared to 2a: lower affinity than 2a
T1 construct: their brains removed to an ice-cooled dish for dissection of the caudate putamen; from tissue; host or cells: rat caudate putamen membranes (fresh homogenates)

[2] = target: T2, muscarinic M1 receptor (Rattus norvegicus, UniProt P08482); experiment: [3H]Pirenzepine binding assay; conditions: for Binding selectivity M1/DAT: Ki ratio; for Lower binding affinity at the M1 receptor compared to 2a: lower affinity than 2a
T2 construct: Membranes from frozen rat brains excluding cerebellum were thawed in ice-cold buffer; from tissue; host or cells: frozen rat brain (excluding cerebellum) membranes
T2 sequence (P08482 1-460): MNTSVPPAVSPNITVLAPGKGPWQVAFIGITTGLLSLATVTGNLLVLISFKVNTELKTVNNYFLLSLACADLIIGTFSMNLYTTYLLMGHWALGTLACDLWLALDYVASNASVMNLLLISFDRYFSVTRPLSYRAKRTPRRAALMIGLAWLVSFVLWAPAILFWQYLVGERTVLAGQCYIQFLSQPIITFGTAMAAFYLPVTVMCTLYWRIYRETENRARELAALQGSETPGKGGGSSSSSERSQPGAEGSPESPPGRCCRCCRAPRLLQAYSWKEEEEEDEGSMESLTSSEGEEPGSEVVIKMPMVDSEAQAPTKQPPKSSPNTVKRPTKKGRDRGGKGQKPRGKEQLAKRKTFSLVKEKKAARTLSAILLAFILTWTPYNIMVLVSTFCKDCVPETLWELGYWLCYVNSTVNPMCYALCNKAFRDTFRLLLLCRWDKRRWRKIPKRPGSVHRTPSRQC
Procedure: In order to understand the neurochemical and behavioral properties of the compounds of the present invention, exemplary benztropinamine analogs were evaluated for displacement of [^3H]WIN 35,428 (2β-carbomethoxy-3β-(4-fluorophenyl)tropane) binding to the DAT in rat caudate-putamen. These benztropinamine analogs were also evaluated for displacement of radiolabeled ligand binding at the serotonin (SERT) and norepinephrine (NET) transporters as well as the muscarinic m1 receptor (M1), Table 1, infra. The NET over DAT selectivity refers to the Ki ratio. […] The DAT selectivities of the analogs over these binding sites are depicted in Table 2.
[…] Binding Assay. Membranes from frozen rat brains excluding cerebellum were thawed in ice-cold buffer (10 mM Tris-HCl, 320 mM sucrose, pH 7.4) and homogenized with a Brinkman polytron in a volume of 10 ml/gm of tissue. The homogenate was centrifuged at 1,000×g for 10 min at 4° C. The resulting supernatant was then centrifuged at 10,000×g for 20 min at 4° C. The resulting pellet was resuspended in a volume of 200 mg/ml in 10 mM Tris buffer (pH 7.4). Ligand binding assays were conducted in tubes containing 0.5 ml of buffer (10 mM Tris-HCl, 5 mM MgCl2), 3 nM [^3H]pirenzepine (New England Nuclear, Boston, Mass.), and 20 mg of brain tissue. The reaction was started with the addition of the tissue and the tubes were incubated for 60 min in a 37° C. water bath. The incubation was terminated by the addition of 5 ml of ice-cold buffer (10 mM Tris-HCl, pH 7.4) and rapid filtration through Whatman GF/B glass fiber filter paper (presoaked in 0.5% polyethylenimine) using a Brandel Cell Harvester (Brandel Instruments, Gaithersburg, Md.). The filters were washed twice with 5 ml cold buffer, and transferred to scintillation vials to which absolute ethanol and Beckman Ready Safe was added. Quinuclidinyl benzilate (QNB), 100 μM final concentration, was used to determine non-specific binding. Data were analyzed by using GraphPad Prism software (San Diego, Calif.).

[3] = target: T3, SERT (Rattus norvegicus, UniProt P31652); experiment: [3H]Citalopram binding assay; conditions: for Binding selectivity SERT/DAT: Ki ratio
T3 construct: Membranes from frozen rat midbrain were homogenized; from tissue; host or cells: frozen rat midbrain membranes
Procedure: (§1) In order to understand the neurochemical and behavioral properties of the compounds of the present invention, exemplary benztropinamine analogs were evaluated for displacement of [^3H]WIN 35,428 (2β-carbomethoxy-3β-(4-fluorophenyl)tropane) binding to the DAT in rat caudate-putamen. These benztropinamine analogs were also evaluated for displacement of radiolabeled ligand binding at the serotonin (SERT) and norepinephrine (NET) transporters as well as the muscarinic m1 receptor (M1), Table 1, infra. The NET over DAT selectivity refers to the Ki ratio. When the Ki ratio is greater than 1, the compound is DAT selective. The DAT selectivities of the analogs over these binding sites are depicted in Table 2.
[^3H]Citalopram Binding Assay. Membranes from frozen rat midbrain were homogenized in 20 volumes (w/v) of 50 mM Tris containing 120 mM NaCl and 5 mM KCl (pH 7.4 at 25° C.), using a Brinkman Polytron (at setting 6 for 20 sec). The tissue was centrifuged at 20,000×g for 10 min at 4° C. The resulting pellet was resuspended in buffer and recentrifuged. The final pellet was resuspended in cold buffer to a concentration of 15 mg/ml (original wet weight). Ligand binding experiments were conducted in assay tubes containing 0.5 ml of buffer, 1.4 nM [^3H]citalopram (New England Nuclear, Boston Mass.), and 1.5 mg midbrain tissue. The reaction was started with the addition of the tissue and the tubes were incubated for 60 min at 25° C. (room temperature). The incubation was terminated by rapid filtration through Whatman GF/B filters (presoaked in 0.3% polyethylenimine in water) using a Brandel Cell Harvester (Brandel Instruments Gaithersburg, Md.). The filters were washed twice with 5 ml cold buffer, transferred to scintillation vials to which Beckman Ready Safe was added. Nonspecific binding was determined using 10 μM fluoxetine (RBI, Natick, Mass.). Data were analyzed using GraphPad Prism software (San Diego, Calif.).

[4] = system: NET; type: binding, rat; conditions: for Binding selectivity NET/DAT: Ki ratio
Procedure: as §1
(§2) [^3H]Nisoxetine Binding Assay. Membranes from frozen frontal cortex dissected from male Sprague-Dawley rats (Taconic Labs, Germantown, N.Y.) were homogenized in 20 volumes (w/v) of 50 mM Tris containing 120 mM NaCl and 5 mM KCl (pH 7.4 at 25° C.), using a Brinkman Polytron (at setting 6 for 20 sec). The tissue was centrifuged at 50,000×g for 10 min at 4° C. The resulting pellet was resuspended in buffer and recentrifuged. The final pellet was resuspended in cold buffer to a concentration of 80 mg/ml (original wet weight). Ligand binding experiments were conducted in assay tubes containing 0.5 ml buffer, 0.5 nM [3H]nisoxetine (New England Nuclear, Boston, Mass.), and 8 mg frontal cortex tissue. The reaction was started with the addition of the tissue and the tubes were incubated for 60 min at 0-4° C. The incubation was terminated by rapid filtration through Whatman GF/B filters, presoaked in 0.05% polyethylenimine, using a Brandel Cell Harvester (Brandel Instruments Gaithersburg, Md.). The filters were washed twice with 5 ml cold buffer, transferred to scintillation vials to which Beckman Ready Safe was added. Nonspecific binding was determined using 1 μM desipramine. Data were analyzed using GraphPad Prism software (San Diego, Calif.).

[5] = system: mice; experiment: Locomotor stimulant effects (activity counts per minute); type: in vivo; conditions: injected, at the most effective dose, FIG. 2
Source text: In contrast, 2m produced much more modest increases in activity of around 100 counts per min.

[6] = target: NET (Rattus norvegicus, UniProt Q63380); type: binding
Procedure: as §1, §2

[7] = rat brain membranes excluding cerebellum, read-out: M1 [3H]pirenzepine Ki ± SEM
[8] = rat midbrain membranes, read-out: SERT [3H]citalopram Ki ± SEM

T3 sequence (P31652 whole entry): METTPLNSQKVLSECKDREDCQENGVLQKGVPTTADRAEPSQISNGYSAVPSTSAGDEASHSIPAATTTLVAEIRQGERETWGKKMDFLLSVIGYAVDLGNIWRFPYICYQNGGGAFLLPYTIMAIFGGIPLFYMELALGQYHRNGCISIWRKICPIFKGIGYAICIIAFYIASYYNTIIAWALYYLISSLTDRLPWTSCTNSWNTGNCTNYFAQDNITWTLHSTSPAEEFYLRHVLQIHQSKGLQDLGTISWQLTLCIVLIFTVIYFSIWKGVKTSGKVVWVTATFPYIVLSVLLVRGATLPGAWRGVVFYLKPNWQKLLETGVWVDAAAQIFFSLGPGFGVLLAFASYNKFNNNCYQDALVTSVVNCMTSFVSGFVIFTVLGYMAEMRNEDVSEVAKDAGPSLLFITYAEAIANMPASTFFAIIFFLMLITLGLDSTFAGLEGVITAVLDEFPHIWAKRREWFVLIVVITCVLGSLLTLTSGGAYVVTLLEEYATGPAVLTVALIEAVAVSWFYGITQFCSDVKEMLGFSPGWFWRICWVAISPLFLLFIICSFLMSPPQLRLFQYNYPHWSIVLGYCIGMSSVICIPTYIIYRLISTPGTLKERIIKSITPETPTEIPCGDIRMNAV
T1 sequence (P23977 whole entry): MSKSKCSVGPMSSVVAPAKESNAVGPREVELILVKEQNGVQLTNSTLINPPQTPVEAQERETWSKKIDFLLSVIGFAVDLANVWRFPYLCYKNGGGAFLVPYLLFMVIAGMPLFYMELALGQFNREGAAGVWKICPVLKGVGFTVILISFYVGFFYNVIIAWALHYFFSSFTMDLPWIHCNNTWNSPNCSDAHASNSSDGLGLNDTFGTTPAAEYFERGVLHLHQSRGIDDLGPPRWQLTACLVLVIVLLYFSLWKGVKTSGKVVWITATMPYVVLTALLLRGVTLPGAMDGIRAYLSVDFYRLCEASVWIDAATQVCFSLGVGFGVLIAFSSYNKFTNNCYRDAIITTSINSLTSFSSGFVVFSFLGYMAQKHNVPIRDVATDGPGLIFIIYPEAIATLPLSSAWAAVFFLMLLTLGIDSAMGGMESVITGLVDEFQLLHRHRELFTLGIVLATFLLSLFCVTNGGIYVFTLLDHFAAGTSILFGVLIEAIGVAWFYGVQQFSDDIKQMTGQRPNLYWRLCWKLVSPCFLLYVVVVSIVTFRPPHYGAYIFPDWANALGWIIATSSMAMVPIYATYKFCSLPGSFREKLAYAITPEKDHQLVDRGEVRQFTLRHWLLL
NET (Rattus norvegicus, UniProt Q63380), sequence (Q63380 1-617): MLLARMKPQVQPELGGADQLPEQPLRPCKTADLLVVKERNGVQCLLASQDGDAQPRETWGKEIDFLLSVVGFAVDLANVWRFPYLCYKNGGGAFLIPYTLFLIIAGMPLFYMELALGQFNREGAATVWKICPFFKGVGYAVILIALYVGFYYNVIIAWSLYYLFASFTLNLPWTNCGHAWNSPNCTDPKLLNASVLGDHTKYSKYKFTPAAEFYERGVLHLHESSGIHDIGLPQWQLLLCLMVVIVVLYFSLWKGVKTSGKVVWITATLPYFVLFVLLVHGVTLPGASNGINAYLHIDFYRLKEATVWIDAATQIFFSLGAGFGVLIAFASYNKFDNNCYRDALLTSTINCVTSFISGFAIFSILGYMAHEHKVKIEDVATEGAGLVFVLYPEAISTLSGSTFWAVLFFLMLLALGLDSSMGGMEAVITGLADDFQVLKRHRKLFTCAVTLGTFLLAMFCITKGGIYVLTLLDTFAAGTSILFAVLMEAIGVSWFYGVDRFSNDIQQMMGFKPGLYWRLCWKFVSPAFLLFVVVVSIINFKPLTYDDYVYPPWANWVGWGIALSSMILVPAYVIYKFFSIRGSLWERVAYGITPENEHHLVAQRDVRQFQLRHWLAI

Compound: CCCCN1[C@@H]2CC[C@H]1C[C@@H](NC(c1ccc(F)cc1)c1ccc(F)cc1)C2 [Compound 2i]
- Ki [1]: 0.0215 ± 0.00231 µM
- Binding selectivity M1/DAT [2]: 21
- Ki [2, 7]: 0.454 ± 0.0367 µM
- Binding selectivity SERT/DAT [3]: 123
- Ki [3, 8]: 2.64 ± 0.0276 µM
- Binding selectivity NET/DAT [4]: 136

Compound: CN1[C@@H]2CC[C@H]1C[C@@H](NC(c1ccc(Cl)cc1)c1ccc(Cl)cc1)C2 [Compound 2d]
- Reduction of binding affinity at the DAT compared to 2a [1]: around 3 fold
- Ki [2, 7]: 0.05 ± 0.0071 µM
- Ki [3, 8]: 4.18 ± 0.623 µM

Compound: Fc1ccc(C(N[C@H]2C[C@H]3CC[C@@H](C2)N3)c2ccc(F)cc2)cc1 [Compound 2g]
- Ki [1]: 0.00845 ± 0.00023 µM
- Binding selectivity M1/DAT [2]: 18
- Ki [2, 7]: 0.154 ± 0.0196 µM
- Binding selectivity SERT/DAT [3]: 491
- Ki [3, 8]: 4.15 ± 0.368 µM
- Binding selectivity NET/DAT [4]: 118

Compound: Fc1ccc(C(N[C@H]2C[C@H]3CC[C@@H](C2)N3CCc2c[nH]c3ccccc23)c2ccc(F)cc2)cc1 (as salt: oxalate) [Compound 2l]
- melting point: 178 to 180 °C

Compound: Fc1ccc(C(N[C@H]2C[C@H]3CC[C@@H](C2)N3CCCCc2ccccc2)c2ccc(F)cc2)cc1 [Compound 2j]
- Ki [1]: 0.0117 ± 0.00039 µM
- Binding selectivity M1/DAT [2]: 37
- Ki [2, 7]: 0.438 ± 0.0562 µM
- Binding selectivity SERT/DAT [3]: 43
- Ki [3, 8]: 0.502 ± 0.0681 µM
- Binding selectivity NET/DAT [4]: 139

Compound: COC(=O)[C@H]1[C@@H](OC(=O)c2ccccc2)C[C@@H]2CC[C@H]1N2C [Cocaine, cocaine, reference compound]
- Locomotor activity [5]: ~400 counts per min

Compound: Fc1ccc(C(N[C@H]2C[C@H]3CC[C@@H](C2)N3CCc2c[nH]c3ccccc23)c2ccc(F)cc2)cc1 [Compound 2l]
- Reduction of binding affinity at the DAT compared to 2a [1]: 6 fold
- Ki [2, 7]: 0.413 ± 0.00655 µM
- Ki [3, 8]: 0.347 ± 0.0413 µM

Compound: CN1[C@@H]2CC[C@H]1C[C@H](NC(c1ccc(F)cc1)c1ccc(F)cc1)C2 [Compound 2b]
- Reduction of binding affinity at the DAT compared to 2a [1]: 58 fold
- Ki [1]: 0.661 ± 0.035 µM
- Ki [2]: 0.0594 ± 0.0073 µM
- Binding selectivity M1/DAT [2]: 0.1
- Ki [3]: 48.5 ± 6.37 µM
- Binding selectivity SERT/DAT [3]: 73
- Ki ([6]; read-out: NET [3H]nisoxetine Ki ± SEM, rat frontal cortex membranes): 15.2 ± 1.23 µM
- Binding selectivity NET/DAT [4]: 23

Compound: Fc1ccc(C(N[C@H]2C[C@H]3CC[C@@H](C2)N3)c2ccc(F)cc2)cc1 (as salt: oxalate) [Compound 2g]
- melting point: 138 to 140 °C

Compound: CN1[C@@H]2CC[C@H]1C[C@@H](NC(c1ccc(Cl)c(Cl)c1)c1ccc(Cl)c(Cl)c1)C2 [Compound 2f]
- Higher binding affinity at the DAT compared to 2a ([1]; higher affinity than 2a): 2 fold
- Ki [1]: 0.00535 ± 0.00025 µM
- Binding selectivity M1/DAT [2]: 3
- Ki [2, 7]: 0.0178 ± 0.00227 µM
- Binding selectivity SERT/DAT [3]: 563
- Ki [3, 8]: 3.01 ± 0.332 µM
- Binding selectivity NET/DAT [4]: 48
- Reduction of NET over DAT selectivity compared to 2a ([4]; compared to 2a): 3 fold

Compound: C=CCN1[C@@H]2CC[C@H]1C[C@@H](NC(c1ccc(F)cc1)c1ccc(F)cc1)C2 [Compound 2h]
- Ki [1]: 0.0268 ± 0.00343 µM
- Binding selectivity M1/DAT [2]: 5
- Ki [2, 7]: 0.13 ± 0.0105 µM
- Binding selectivity SERT/DAT [3]: 146
- Ki [3, 8]: 3.92 ± 0.581 µM
- Binding selectivity NET/DAT [4]: 208

Compound: CN(C(c1ccc(F)cc1)c1ccc(F)cc1)[C@H]1C[C@H]2CC[C@@H](C1)N2C [Compound 2c]
- Reduction of binding affinity at the DAT compared to 2a [1]: 11 fold
- Ki [1]: 0.123 ± 0.0155 µM
- Ki [2]: 0.0186 ± 0.00248 µM
- Binding selectivity M1/DAT [2]: 0.2
- Lower binding affinity at the M1 receptor compared to 2a [2]: about 2 fold
- Ki [3]: 17.2 ± 2.46 µM
- Binding selectivity SERT/DAT [3]: 140
- Lower binding affinity at the SERT compared to 2a ([3]; lower affinity than 2a): about 2 fold
- Lower binding affinity at the NET compared to 2a ([6]; lower affinity than 2a): about 5 fold
- Binding selectivity NET/DAT [4]: 68

Compound: CN1[C@@H]2CC[C@H]1C[C@@H](NC(c1ccc(F)cc1)c1ccc(F)cc1)C2 [Compound 2a]
- Ki [1]: 0.0113 ± 0.00161 µM
- Binding selectivity M1/DAT [2]: 0.7
- Ki [2, 7]: 0.00781 ± 0.00117 µM
- Binding selectivity SERT/DAT [3]: 769
- Ki [3, 8]: 8.68 ± 0.436 µM
- Binding selectivity NET/DAT [4]: 160

Compound: CN(C(c1ccc(F)cc1)c1ccc(F)cc1)[C@H]1C[C@H]2CC[C@@H](C1)N2C (as salt: oxalate) [Compound 2c]
- melting point: 227 to 228 °C

Compound: NCCN1[C@@H]2CC[C@H]1C[C@@H](NC(c1ccc(F)cc1)c1ccc(F)cc1)C2 [Compound 2k]
- Ki [1]: 0.0125 ± 0.00173 µM
- Lower binding affinity at the M1 receptor compared to 2a [2]: 170 fold
- Ki [2, 7]: 2.11 ± 0.119 µM

Compound: Fc1ccc(C(N[C@H]2C[C@H]3CC[C@@H](C2)N3CCCCc2ccccc2)c2ccc(F)cc2)cc1 (as salt: oxalate) [Compound 2j]
- melting point: 194 to 196 °C

Compound: CN1[C@@H]2CC[C@H]1C[C@@H](NC(c1ccccc1)c1ccc(Cl)cc1)C2 (some centres unmarked) [Compound 2e]
- Reduction of binding affinity at the DAT compared to 2a [1]: around 3 fold
- Ki [1]: 0.0365 ± 0.00066 µM
- Binding selectivity M1/DAT [2]: 0.3
- Ki [2, 7]: 0.0093 ± 0.00027 µM
- Binding selectivity SERT/DAT [3]: 373
- Ki [3, 8]: 13.6 ± 1.04 µM
- Binding selectivity NET/DAT [4]: 87
